Measurements: publication PMC7486443, “Generation of Phenothiazine with Potent Anti-TLK1 Activity for Prostate Cancer Therapy” (iScience, 2020)

Columns and labels:
Assay in all cases: biochemical
Set-up in all cases: DiscoverX KINOMEscan scanMAX competition binding panel, single concentration, percent of control; remaining binding: dose or concentration left out as unconfirmed
Settings in all cases: KINOMEscan binding, percent of control; read-out: Table S4_SCANMAX REPORT - related to Fig. 1 / Percent Control
ERBB2 = ERBB2 (Homo sapiens, UniProt P04626)
CIT = CIT (Homo sapiens, UniProt O14578)
PIP5K2B = biological target: T1, PIP5K2B (Homo sapiens, UniProt P78356)
T1 construct: gene PIP4K2B

FLT3(D835V) = FLT3(D835V) (Homo sapiens, UniProt P36888, D835V)
PFTK1 = biological target: T2, PFTK1 (Homo sapiens, UniProt O94921)
T2 construct: gene CDK14

ERBB4 = ERBB4 (Homo sapiens, UniProt Q15303)
CSNK1G2 = CSNK1G2 (Homo sapiens, UniProt P78368)
VPS34 = biological target: T3, VPS34 (Homo sapiens, UniProt Q8NEB9)
T3 construct: gene PIK3C3

KIT(V559D) = KIT(V559D) (Homo sapiens, UniProt P10721, V559D)
[1] = biological target: T4, ABL1(T315I)-phosphorylated (Homo sapiens, UniProt P00519, T315I)
T4 construct: phosphorylated

TSSK1B = TSSK1B (Homo sapiens, UniProt Q9BXA7)
FLT3(D835H) = FLT3(D835H) (Homo sapiens, UniProt P36888, D835H)
ALK(L1196M) = ALK(L1196M) (Homo sapiens, UniProt Q9UM73, L1196M)
PDPK1 = PDPK1 (Homo sapiens, UniProt O15530)
LKB1 = biological target: T5, LKB1 (Homo sapiens, UniProt Q15831)
T5 construct: gene STK11

NLK = NLK (Homo sapiens, UniProt Q9UBE8)
TAOK3 = TAOK3 (Homo sapiens, UniProt Q9H2K8)
ABL1-phosphorylated = biological target: T6, ABL1-phosphorylated (Homo sapiens, UniProt P00519)
T6 construct: phosphorylated

Sequence of CSNK1G2 (P78368 whole entry): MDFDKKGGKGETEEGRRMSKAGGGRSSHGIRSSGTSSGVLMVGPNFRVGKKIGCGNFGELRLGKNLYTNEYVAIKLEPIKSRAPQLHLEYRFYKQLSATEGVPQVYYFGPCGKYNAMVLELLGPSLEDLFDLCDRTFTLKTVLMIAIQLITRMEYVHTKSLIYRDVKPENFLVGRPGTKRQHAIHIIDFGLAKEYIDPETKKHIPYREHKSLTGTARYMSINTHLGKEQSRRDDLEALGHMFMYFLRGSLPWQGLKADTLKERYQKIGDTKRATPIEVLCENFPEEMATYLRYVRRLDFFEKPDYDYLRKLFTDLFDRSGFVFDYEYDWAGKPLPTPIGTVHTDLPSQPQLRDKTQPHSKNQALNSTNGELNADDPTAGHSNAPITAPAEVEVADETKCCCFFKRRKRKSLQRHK
T5 sequence (Q15831 whole entry): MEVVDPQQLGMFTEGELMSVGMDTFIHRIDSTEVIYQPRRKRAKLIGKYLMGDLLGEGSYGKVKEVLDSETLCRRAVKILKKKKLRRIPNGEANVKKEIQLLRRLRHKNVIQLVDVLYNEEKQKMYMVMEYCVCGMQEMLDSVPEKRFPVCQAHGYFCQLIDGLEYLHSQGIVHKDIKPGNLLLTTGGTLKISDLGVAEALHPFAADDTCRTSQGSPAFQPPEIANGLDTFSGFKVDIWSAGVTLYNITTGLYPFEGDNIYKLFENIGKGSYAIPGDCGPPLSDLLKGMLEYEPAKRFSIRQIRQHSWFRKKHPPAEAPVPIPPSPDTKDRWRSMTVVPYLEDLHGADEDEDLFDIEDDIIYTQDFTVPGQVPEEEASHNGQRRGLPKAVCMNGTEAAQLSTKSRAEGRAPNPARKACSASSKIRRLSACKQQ
Sequence of TSSK1B (Q9BXA7 whole entry): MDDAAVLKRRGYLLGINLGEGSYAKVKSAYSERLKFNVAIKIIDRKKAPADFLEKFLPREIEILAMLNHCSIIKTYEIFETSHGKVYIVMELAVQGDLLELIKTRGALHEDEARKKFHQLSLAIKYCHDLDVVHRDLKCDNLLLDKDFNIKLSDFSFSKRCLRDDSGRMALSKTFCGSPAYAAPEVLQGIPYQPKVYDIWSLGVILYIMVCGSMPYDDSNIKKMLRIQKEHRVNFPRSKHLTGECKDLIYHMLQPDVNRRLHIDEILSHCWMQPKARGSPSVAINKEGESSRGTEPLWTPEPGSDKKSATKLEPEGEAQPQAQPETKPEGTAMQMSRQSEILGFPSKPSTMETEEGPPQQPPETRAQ
Sequence of KIT(V559D) (P10721 whole entry V559D): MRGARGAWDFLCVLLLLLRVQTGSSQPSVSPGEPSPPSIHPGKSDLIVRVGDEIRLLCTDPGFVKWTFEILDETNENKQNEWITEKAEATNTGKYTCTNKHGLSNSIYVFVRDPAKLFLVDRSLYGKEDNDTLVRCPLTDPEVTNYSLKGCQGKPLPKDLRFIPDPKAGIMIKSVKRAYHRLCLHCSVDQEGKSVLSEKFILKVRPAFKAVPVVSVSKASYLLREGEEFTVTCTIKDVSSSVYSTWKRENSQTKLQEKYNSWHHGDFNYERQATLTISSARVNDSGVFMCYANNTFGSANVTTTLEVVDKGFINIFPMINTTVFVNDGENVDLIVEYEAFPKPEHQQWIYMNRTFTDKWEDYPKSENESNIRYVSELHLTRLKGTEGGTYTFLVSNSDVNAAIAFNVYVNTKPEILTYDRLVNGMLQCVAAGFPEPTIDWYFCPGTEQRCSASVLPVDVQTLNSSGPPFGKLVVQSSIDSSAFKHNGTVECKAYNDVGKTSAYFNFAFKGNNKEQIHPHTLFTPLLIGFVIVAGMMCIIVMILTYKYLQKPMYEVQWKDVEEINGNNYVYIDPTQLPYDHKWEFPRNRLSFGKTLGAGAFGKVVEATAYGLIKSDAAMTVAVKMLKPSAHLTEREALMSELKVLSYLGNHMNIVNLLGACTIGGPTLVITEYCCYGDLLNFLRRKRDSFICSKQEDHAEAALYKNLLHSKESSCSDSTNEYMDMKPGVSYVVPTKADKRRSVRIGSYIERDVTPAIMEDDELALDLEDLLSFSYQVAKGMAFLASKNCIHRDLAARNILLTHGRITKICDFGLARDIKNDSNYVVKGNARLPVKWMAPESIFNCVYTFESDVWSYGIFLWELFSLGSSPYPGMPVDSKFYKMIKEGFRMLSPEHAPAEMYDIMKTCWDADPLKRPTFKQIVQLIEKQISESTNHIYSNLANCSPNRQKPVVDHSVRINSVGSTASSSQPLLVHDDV
Sequence of NLK (Q9UBE8 whole entry): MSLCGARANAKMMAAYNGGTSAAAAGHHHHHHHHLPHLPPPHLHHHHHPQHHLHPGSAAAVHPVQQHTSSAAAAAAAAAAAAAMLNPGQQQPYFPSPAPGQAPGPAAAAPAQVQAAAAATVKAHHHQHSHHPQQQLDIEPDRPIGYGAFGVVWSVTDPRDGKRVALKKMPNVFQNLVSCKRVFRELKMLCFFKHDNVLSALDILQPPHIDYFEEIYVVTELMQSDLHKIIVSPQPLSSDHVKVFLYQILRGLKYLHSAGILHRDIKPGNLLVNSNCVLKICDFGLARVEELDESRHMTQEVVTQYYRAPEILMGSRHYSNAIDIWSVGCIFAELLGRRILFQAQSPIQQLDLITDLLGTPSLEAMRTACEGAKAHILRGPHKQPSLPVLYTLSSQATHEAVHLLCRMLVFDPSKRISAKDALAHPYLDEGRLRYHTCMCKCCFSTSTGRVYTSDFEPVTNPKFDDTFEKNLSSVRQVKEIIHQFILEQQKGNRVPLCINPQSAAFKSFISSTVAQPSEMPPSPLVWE
T3 sequence (Q8NEB9 whole entry): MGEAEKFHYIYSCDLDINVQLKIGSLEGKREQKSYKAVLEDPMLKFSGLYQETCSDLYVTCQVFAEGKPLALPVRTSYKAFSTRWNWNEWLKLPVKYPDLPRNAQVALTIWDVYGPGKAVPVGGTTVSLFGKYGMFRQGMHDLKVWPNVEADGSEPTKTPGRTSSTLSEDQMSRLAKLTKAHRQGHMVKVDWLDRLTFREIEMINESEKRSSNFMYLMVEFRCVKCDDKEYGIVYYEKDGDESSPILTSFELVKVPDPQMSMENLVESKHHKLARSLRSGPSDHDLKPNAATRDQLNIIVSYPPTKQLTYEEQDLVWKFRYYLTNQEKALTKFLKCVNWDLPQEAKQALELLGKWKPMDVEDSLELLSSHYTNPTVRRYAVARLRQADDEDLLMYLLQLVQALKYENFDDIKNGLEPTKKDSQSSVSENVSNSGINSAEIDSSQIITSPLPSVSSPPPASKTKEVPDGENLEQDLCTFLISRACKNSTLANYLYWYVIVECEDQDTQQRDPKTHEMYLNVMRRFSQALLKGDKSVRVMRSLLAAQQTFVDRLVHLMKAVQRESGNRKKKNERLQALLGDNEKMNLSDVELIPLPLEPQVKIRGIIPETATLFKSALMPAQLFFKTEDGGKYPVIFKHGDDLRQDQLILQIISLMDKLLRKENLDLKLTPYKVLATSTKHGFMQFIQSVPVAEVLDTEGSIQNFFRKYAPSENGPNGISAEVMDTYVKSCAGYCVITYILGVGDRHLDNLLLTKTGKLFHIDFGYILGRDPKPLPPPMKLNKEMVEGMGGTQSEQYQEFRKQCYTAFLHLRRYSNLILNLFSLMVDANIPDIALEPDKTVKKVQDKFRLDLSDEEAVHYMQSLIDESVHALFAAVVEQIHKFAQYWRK
Sequence of ERBB4 (Q15303 whole entry): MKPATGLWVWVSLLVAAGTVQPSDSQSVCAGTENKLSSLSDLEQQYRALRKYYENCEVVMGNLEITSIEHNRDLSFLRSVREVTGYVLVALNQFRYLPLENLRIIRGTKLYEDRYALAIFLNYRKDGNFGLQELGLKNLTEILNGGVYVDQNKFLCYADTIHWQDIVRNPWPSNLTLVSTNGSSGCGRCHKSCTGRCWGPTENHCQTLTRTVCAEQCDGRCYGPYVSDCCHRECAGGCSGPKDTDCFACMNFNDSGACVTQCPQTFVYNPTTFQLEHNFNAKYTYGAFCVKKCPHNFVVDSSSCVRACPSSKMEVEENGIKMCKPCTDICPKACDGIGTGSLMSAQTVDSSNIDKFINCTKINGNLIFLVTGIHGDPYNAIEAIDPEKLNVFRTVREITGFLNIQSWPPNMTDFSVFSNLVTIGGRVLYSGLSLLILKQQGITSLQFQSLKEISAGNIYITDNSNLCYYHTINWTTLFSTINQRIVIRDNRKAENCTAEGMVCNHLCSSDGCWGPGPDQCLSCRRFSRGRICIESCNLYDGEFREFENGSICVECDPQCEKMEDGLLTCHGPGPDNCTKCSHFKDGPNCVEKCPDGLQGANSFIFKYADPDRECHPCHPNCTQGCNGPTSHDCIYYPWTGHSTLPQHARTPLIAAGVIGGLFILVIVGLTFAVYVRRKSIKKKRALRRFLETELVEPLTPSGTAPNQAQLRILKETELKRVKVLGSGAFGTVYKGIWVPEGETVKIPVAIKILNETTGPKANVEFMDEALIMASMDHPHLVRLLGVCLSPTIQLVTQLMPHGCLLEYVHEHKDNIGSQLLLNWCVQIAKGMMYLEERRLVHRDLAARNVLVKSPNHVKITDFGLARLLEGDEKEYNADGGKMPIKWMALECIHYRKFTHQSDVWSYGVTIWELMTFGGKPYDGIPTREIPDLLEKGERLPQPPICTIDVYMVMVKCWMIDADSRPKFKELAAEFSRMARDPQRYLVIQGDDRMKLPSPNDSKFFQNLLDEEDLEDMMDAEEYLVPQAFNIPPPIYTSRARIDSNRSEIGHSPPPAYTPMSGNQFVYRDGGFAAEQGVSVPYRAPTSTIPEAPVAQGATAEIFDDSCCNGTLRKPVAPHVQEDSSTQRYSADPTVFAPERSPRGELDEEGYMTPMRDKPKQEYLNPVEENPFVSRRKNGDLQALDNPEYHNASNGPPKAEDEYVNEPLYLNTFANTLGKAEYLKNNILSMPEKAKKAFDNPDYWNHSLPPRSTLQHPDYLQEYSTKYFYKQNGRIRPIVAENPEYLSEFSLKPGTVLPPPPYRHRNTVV

Question: `c1ccc2c(c1)Sc1ccccc1N2CCN1CCOCC1` [J54] was tested. Which remaining binding (ERBB2) did it give?
Answer: 100%

Question: What about the remaining binding (CIT) of the same compound?
Answer: 88%

Question: And the remaining binding (PIP5K2B)?
Answer: 51%

Question: What about the remaining binding (FLT3(D835V)) of the same compound?
Answer: 46%

Question: What about the remaining binding (PFTK1) of the same compound?
Answer: 100%

Question: And the remaining binding (ERBB4)?
Answer: 100%

Question: What about the remaining binding (CSNK1G2) of the same compound?
Answer: 93%

Question: And the remaining binding (VPS34)?
Answer: 86%

Question: And the remaining binding (KIT(V559D))?
Answer: 100%

Question: And the remaining binding [1]?
Answer: 93%

Question: And the remaining binding (TSSK1B)?
Answer: 59%

Question: And the remaining binding (FLT3(D835H))?
Answer: 100%

Question: What about the remaining binding (ALK(L1196M)) of the same compound?
Answer: 100%

Question: And the remaining binding (PDPK1)?
Answer: 92%

Question: And the remaining binding (LKB1)?
Answer: 89%

Question: And the remaining binding (NLK)?
Answer: 91%

Question: What about the remaining binding (TAOK3) of the same compound?
Answer: 100%

Question: And the remaining binding (ABL1-phosphorylated)?
Answer: 71%
